Read-outs that look alike come from different tables or passages of the source.
Tests used:
[1] = system: BaF3 cells expressing wildtype EGFR; test: Antiproliferative activity (MTT) against control BaF3 cells expressing wildtype EGFR; type: cell-based; settings: Mus musculus
Description: (§1) We also assessed the antiproliferative activity of compounds of Formula (I) against BaF3 cells expressing the target EGFR mutations or control (i.e., cell lines expressing wildtype EGFR). Assays were conducted using MTT.

[2] = target: human EGFR (native sequence) (Homo sapiens, UniProt P00533); test: Kinase inhibitory activity against human EGFR (native sequence); type: biochemical; settings: 10 μM ATP, read-out: IC50 for kinase inhibition, EGFR
Description: (§2) Kinase inhibitory activity of the compounds was measured against human EGFR (native sequence) and against EGFR bearing the L858R mution and the L858R/T790M double mutation (EGFR, L858R, and L858R/T790M, respectively in Table 1). Additional assays can be conducted with EGFR deletion mutants such as delE746-A750 with or without the additional T790M mutation. Assay conditions included 10 pt curves with 3 μM top concentration (singlicates) and 10 μM ATP.

EGFR L858R/T790M = EGFR L858R/T790M (Homo sapiens, UniProt P00533, L858R/T790M); test: Kinase inhibitory activity against EGFR bearing the L858R/T790M double mutation; type: biochemical; settings: 10 μM ATP, read-out: IC50 for kinase inhibition, EGFR L858R T790M
Description: as §2

EGFR L858R = EGFR L858R (Homo sapiens, UniProt P00533, L858R); test: Kinase inhibitory activity against EGFR bearing the L858R mutation; type: biochemical; settings: 10 μM ATP, read-out: IC50 for kinase inhibition, EGFR L858R
Description: as §2

[3] = target: T1, BaF3 cells expressing the target EGFR mutations (Homo sapiens, UniProt P00533, T790M, cells depend on it, form not given); test: Antiproliferative activity (MTT) against BaF3 cells expressing the target EGFR mutations; type: cell-based; settings: BAF3 EGFR DEL T790M PURO POOL cells, read-out: IC50, BAF3 EGFR DEL T790M PURO POOL
T1 construct: IC50, BAF3 EGFR DEL T790M PURO POOL; other: BAF3 EGFR DEL T790M PURO POOL cells, MTT; other: BAF3 EGFR DEL T790M PURO POOL cells; MTT
Description: as §1

[4] = target: T2, BaF3 cells expressing the target EGFR mutations (Homo sapiens, UniProt P00533, T790M/L858R, cells depend on it); test: as above; type: cell-based; settings: BAF3 EGFR L858R-T790M PURO POOL cells, read-out: IC50, BAF3 EGFR L858R-T790M PURO POOL
T2 construct: IC50, BAF3 EGFR L858R-T790M PURO POOL; other: BAF3 EGFR L858R-T790M PURO POOL cells, MTT; IC50, BAF3 EGFR L858R-T790M PURO POOL; other: BAF3 EGFR L858R-T790M PURO POOL cells; MTT
Description: as §1

[5] = 10 pt curves, 3 μM top concentration
[6] = EGFR L858R/T790M double mutation

T2 sequence (P00533 whole entry T790M/L858R): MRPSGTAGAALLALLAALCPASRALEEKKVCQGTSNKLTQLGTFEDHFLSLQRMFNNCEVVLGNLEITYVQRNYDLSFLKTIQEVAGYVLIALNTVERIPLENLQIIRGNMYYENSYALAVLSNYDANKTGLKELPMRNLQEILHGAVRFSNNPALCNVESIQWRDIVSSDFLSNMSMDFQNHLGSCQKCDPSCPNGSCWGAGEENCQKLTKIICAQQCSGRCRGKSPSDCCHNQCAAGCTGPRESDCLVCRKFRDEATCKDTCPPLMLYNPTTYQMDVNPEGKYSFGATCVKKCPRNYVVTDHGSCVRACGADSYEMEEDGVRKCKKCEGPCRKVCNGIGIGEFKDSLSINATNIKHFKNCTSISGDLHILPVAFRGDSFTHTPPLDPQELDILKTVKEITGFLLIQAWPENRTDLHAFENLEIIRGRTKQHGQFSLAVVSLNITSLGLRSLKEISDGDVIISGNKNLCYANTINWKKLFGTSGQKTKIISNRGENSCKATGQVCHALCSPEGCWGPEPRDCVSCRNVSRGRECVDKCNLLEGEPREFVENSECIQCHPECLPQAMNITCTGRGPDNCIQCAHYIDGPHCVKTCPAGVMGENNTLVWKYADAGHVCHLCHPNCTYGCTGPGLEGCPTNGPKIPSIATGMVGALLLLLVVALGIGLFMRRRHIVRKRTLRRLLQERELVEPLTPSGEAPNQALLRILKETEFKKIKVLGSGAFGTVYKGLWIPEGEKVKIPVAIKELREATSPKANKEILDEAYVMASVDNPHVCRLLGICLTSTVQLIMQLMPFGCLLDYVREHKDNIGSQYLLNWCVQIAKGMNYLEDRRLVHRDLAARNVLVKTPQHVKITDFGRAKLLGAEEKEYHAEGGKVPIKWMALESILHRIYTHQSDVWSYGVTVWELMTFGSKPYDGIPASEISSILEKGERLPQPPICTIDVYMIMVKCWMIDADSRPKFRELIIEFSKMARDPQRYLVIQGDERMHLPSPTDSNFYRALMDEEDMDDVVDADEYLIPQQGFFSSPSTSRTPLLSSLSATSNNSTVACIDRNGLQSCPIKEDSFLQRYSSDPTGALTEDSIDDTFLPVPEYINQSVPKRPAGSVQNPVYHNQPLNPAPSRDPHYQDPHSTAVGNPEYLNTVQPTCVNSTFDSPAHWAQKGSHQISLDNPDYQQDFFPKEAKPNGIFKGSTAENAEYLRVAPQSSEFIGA
Chain of EGFR L858R/T790M (P00533 25-1210 T790M/L858R): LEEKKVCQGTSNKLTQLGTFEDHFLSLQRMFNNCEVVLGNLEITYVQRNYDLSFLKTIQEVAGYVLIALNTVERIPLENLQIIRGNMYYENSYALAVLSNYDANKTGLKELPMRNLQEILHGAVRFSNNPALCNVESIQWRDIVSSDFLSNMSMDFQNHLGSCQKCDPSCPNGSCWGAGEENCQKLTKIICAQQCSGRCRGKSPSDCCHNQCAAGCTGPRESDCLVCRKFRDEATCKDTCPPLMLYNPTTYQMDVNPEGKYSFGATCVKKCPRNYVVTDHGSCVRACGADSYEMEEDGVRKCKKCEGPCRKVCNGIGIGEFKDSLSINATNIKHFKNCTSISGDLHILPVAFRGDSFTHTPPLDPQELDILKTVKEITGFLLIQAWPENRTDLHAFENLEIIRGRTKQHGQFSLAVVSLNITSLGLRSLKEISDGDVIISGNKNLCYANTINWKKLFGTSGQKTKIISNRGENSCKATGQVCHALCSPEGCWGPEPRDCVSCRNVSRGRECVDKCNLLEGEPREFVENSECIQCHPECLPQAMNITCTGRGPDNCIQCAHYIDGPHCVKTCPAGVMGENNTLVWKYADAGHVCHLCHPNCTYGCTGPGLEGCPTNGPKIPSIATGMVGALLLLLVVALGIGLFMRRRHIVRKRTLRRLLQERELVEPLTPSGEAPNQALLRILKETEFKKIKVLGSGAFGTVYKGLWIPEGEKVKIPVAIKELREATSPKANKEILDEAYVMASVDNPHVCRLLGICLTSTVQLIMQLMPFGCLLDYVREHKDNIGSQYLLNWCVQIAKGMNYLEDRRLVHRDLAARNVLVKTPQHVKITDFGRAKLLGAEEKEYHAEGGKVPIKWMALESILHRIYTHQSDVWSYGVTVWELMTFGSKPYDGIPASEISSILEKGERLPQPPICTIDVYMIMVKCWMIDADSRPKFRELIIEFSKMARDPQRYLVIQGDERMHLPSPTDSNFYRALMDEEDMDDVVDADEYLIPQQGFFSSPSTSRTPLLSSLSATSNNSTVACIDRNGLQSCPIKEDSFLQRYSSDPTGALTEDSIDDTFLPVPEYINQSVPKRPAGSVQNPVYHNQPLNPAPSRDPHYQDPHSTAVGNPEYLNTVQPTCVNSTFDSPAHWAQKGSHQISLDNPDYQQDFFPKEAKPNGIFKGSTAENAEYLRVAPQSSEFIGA
T1 sequence (P00533 with tags, fused parts or gaps DEL746-750/T790M, form open): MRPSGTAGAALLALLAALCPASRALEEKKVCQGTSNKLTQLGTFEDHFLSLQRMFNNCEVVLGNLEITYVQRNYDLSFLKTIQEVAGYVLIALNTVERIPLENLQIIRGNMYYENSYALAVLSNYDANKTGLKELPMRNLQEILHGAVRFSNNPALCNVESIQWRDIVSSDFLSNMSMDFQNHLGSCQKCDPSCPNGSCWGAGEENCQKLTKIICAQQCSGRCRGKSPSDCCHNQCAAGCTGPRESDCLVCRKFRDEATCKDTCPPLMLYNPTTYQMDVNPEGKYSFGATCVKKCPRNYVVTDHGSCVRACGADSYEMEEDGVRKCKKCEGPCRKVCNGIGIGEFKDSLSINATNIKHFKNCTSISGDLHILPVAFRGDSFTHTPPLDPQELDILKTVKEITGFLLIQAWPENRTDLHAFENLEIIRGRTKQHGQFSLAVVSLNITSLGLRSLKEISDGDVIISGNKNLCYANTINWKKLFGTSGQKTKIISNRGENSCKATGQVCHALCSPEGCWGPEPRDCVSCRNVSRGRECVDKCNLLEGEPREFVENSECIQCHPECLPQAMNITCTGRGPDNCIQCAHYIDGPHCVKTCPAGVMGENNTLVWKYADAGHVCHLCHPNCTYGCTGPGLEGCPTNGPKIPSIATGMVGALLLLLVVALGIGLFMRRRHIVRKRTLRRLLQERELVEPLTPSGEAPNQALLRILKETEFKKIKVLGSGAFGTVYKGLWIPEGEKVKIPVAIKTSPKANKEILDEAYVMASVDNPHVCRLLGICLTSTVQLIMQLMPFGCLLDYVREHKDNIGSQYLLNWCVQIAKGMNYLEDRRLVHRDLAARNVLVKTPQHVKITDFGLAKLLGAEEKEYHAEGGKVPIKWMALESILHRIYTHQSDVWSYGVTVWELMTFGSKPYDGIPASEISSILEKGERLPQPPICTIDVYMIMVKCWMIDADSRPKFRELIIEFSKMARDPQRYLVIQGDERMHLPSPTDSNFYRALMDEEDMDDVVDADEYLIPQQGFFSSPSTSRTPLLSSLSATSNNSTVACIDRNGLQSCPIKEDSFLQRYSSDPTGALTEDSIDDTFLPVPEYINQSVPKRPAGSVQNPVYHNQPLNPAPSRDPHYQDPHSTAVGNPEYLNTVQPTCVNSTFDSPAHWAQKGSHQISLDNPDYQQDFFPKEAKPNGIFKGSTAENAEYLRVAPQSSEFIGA
Chain of human EGFR (native sequence) (P00533 25-1210): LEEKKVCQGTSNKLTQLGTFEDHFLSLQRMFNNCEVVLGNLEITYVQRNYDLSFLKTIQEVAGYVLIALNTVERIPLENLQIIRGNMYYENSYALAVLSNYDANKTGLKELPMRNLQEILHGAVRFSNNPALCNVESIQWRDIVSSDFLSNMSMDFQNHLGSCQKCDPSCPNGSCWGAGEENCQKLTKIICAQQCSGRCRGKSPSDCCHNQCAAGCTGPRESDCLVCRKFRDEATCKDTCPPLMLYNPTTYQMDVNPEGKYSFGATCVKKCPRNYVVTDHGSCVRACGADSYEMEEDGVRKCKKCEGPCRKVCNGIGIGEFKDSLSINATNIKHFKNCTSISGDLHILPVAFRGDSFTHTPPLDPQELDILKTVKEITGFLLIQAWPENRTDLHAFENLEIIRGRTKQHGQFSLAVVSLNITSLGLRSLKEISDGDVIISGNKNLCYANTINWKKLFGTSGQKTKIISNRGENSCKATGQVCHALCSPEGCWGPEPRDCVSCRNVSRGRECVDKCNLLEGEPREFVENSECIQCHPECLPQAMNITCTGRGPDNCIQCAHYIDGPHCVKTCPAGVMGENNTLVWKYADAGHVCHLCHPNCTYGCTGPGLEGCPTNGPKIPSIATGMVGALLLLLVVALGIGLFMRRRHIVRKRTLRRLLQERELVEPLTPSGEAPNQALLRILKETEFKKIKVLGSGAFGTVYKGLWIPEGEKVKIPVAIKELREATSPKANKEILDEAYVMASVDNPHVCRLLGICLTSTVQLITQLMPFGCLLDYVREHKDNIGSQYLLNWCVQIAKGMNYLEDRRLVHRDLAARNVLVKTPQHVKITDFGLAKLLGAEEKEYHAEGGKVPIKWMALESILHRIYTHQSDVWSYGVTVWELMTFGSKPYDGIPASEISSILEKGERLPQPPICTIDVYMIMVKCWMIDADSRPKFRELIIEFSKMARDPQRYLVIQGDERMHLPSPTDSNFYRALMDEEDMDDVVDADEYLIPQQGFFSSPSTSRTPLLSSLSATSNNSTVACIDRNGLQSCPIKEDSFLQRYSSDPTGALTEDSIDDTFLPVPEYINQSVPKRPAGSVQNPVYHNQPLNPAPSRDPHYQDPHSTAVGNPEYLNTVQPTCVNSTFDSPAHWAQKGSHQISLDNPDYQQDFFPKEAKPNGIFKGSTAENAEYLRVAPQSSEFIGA

Row | SMILES | IC50 [2, 5] [nM] | IC50 (EGFR L858R/T790M; [5]) [nM] | IC50 (EGFR L858R; [5]) [nM] | GI50 [3] [nM] | GI50 [4] [nM] | IC50 ([2]; human EGFR native sequence) [nM] | IC50 (EGFR L858R/T790M; [6]) [nM] | IC50 (EGFR L858R; EGFR L858R) [nM] | IC50 ([1]; BAF3 parental cells) [nM] | IC50 ([1]; BAF3 PARENTAL cells (control)) [nM]
1 | C=C(CN1CCCC1)C(=O)Nc1ccc(OC)c(Nc2ncc(Cl)c(Nc3ccccc3P(C)(C)=O)n2)c1 [Example 42, N-(3-((5-chloro-4-((2-(dimethylphosphoryl)phenyl)amino)pyrimidin-2-yl)amino)-4-methoxyphenyl)-2-(pyrrolidin-1-ylmethyl)acrylamide] |  |  |  | < 50 | < 50 | < 50 | < 50 | < 50 |  | ≥ 250
2 | C=CC(=O)Nc1cc(Nc2ncc(Cl)c(Nc3ccccc3P(C)(C)=O)n2)c(OC)cc1N1CCC(N2CCC2)C1 (stereo not drawn) [Example 68, N-(2-(3-(azetidin-1-yl)pyrrolidin-1-yl)-5-((5-chloro-4-((2-(dimethylphosphoryl)phenyl)amino)pyrimidin-2-yl)amino)-4-methoxyphenyl)acrylamide] |  |  |  | < 50 | < 50 | < 50 | < 50 | < 50 |  | ≥ 250
3 | COc1ccc(NC(=O)/C=C/C(=O)NCCN(C)C)cc1Nc1ncc(Cl)c(Nc2ccccc2P(C)(C)=O)n1 [Example 58, N1-(3-((5-chloro-4-((2-(dimethylphosphoryl)phenyl)amino)pyrimidin-2-yl)amino)-4-methoxyphenyl)-N4-(2-(dimethylamino)ethyl)fumaramide] |  |  |  | ≥ 250 | ≥ 250 | < 50 | < 50 | < 50 |  | ≥ 250
4 | C=CC(=O)Nc1cc(Nc2ncc(Cl)c(Nc3ccccc3P(C)(C)=O)n2)c(OC)cc1N1CCC(N2CCCN(C)CC2)CC1 [Example 71, N-(5-((5-chloro-4-((2-(dimethylphosphoryl)phenyl)amino)pyrimidin-2-yl)amino)-4-methoxy-2-(4-(4-methyl-1,4-diazepan-1-yl)piperidin-1-yl)phenyl)acrylamide] |  |  |  | 50 to 100 | 101 to 250 | < 50 | < 50 | < 50 |  | ≥ 250
5 | COc1ccc(NC(=O)/C=C\C(=O)N2CCN(C)CC2)cc1Nc1ncc(Cl)c(Nc2ccccc2P(C)(C)=O)n1 [Example 63, (Z)-N-(3-((5-chloro-4-((2-(dimethylphosphoryl)phenyl)amino)pyrimidin-2-yl)amino)-4-methoxyphenyl)-4-(4-methylpiperazin-1-yl)-4-oxobut-2-enamide] |  |  |  | ≥ 250 | ≥ 250 | ≥ 250 | ≥ 250 | 101 to 250 |  | ≥ 250
6 | C=CC(=O)Nc1cc(Nc2ncc(Cl)c(Nc3ccccc3P(C)(C)=O)n2)c(OC)cc1N1CC(N2CCCC2)C1 [Example 31, N-(5-((5-chloro-4-((2-(dimethylphosphoryl)phenyl)amino)pyrimidin-2-yl)amino)-4-methoxy-2-(3-(pyrrolidin-1-yl)azetidin-1-yl)phenyl)acrylamide] |  |  |  | < 50 | < 50 | < 50 | < 50 | < 50 |  | ≥ 250
7 | C=C(CN1CCN(CCO)CC1)C(=O)Nc1ccc(OC)c(Nc2ncc(Cl)c(Nc3ccccc3P(C)(C)=O)n2)c1 [Example 52, N-(3-((5-chloro-4-((2-(dimethylphosphoryl)phenyl)amino)pyrimidin-2-yl)amino)-4-methoxyphenyl)-2-((4-(2-hydroxyethyl)piperazin-1-yl)methyl)acrylamide] |  |  |  | < 50 | < 50 | < 50 | < 50 | < 50 |  | ≥ 250
8 | C=CC(=O)Nc1cc(Nc2ncc(Cl)c(Nc3ccccc3P(C)(C)=O)n2)c(OC)cc1OCC1CCCCN1C (stereo not drawn) [Example 7, N-(5-((5-chloro-4-((2-(dimethylphosphoryl)phenyl)amino)pyrimidin-2-yl)amino)-4-methoxy-2-((1-methylpiperidin-2-yl)methoxy)phenyl)acrylamide] |  |  |  | < 50 | < 50 | < 50 | < 50 | < 50 |  | ≥ 250
9 | C=CC(=O)Nc1cc(Nc2ncc(Cl)c(Nc3ccccc3P(C)(C)=O)n2)c(OC)cc1N1CCC(N(C)CCN(CC)CC)C1 (stereo not drawn) [Example 38, N-(5-((5-chloro-4-((2-(dimethylphosphoryl)phenyl)amino)pyrimidin-2-yl)amino)-2-(3-((2-(diethylamino)ethyl)(methyl)amino)pyrrolidin-1-yl)-4-methoxyphenyl)acrylamide] |  |  |  | < 50 | 101 to 250 | < 50 | < 50 | < 50 |  | ≥ 250
10 | C=CC(=O)Nc1cc(Nc2ncc(Cl)c(Nc3ccccc3P(C)(C)=O)n2)c(OC)cc1N1CCC(N2CCC(O)CC2)C1 (stereo not drawn) [Example 39, N-(5-((5-chloro-4-((2-(dimethylphosphoryl)phenyl)amino)pyrimidin-2-yl)amino)-2-(3-(4-hydroxypiperidin-1-yl)pyrrolidin-1-yl)-4-methoxyphenyl)acrylamide] |  |  |  | 101 to 250 | ≥ 250 | < 50 | < 50 | < 50 |  | ≥ 250

Continued, in another order:

Row | IC50 [2, 5] [nM] | IC50 (EGFR L858R/T790M; [5]) [nM] | IC50 (EGFR L858R; [5]) [nM] | GI50 [3] [nM] | GI50 [4] [nM] | IC50 ([2]; human EGFR native sequence) [nM] | IC50 (EGFR L858R/T790M; [6]) [nM] | IC50 (EGFR L858R; EGFR L858R) [nM] | SMILES | IC50 ([1]; BAF3 parental cells) [nM] | IC50 ([1]; BAF3 PARENTAL cells (control)) [nM]
11 | 50 to 100 | < 50 | < 50 | < 50 | 50 to 100 |  |  |  | C=CC(=O)Nc1ccc(OC)c(Nc2ncc(OC)c(Nc3ccccc3P(C)(C)=O)n2)c1 [Example 131, N-(3-((4-((2-(dimethylphosphoryl)phenyl)amino)-5-methoxypyrimidin-2-yl)amino)-4-methoxyphenyl)acrylamide] | ≥ 250 | 
12 | < 50 | < 50 | < 50 | < 50 | < 50 |  |  |  | C=CC(=O)Nc1cc(Nc2ncc(C3CC3)c(Nc3ccccc3P(C)(C)=O)n2)c(OC)cc1N(C)CCN(CC)CC [Example 120, N-(5-((5-cyclopropyl-4-((2-(dimethylphosphoryl)phenyl)amino)pyrimidin-2-yl)amino)-2-((2-(diethylamino)ethyl)(methyl)amino)-4-methoxyphenyl)acrylamide] | ≥ 250 | 
13 | < 50 | < 50 | < 50 | < 50 | < 50 |  |  |  | COCC1CCCN1CCC#CC(=O)Nc1cc(Nc2ncc(Cl)c(Nc3ccccc3P(C)(C)=O)n2)c(OC)cc1N1CCOCC1 (stereo not drawn) [Example 122, N-(5-((5-chloro-4-((2-(dimethylphosphoryl)phenyl)amino)pyrimidin-2-yl)amino)-4-methoxy-2-morpholinophenyl)-5-(2-(methoxymethyl)pyrrolidin-1-yl)pent-2-ynamide] | ≥ 250 | 
14 | < 50 | < 50 | < 50 | < 50 | < 50 |  |  |  | C=CC(=O)Nc1ccc(OC(F)(F)F)c(Nc2ncc(Cl)c(Nc3ccccc3P(C)(C)=O)n2)c1 [Example 134, N-(3-((5-chloro-4-((2-(dimethylphosphoryl)phenyl)amino)pyrimidin-2-yl)amino)-4-(trifluoromethoxy)phenyl)acrylamide] | ≥ 250 | 
15 | < 50 | < 50 | < 50 | < 50 | < 50 |  |  |  | C=CC(=O)Nc1cc(Nc2ncc(Cl)c(Nc3ccccc3P(C)(C)=O)n2)c(CC)cc1C#CCN(C)C [Example 152, N-(5-((5-chloro-4-((2-(dimethylphosphoryl)phenyl)amino)pyrimidin-2-yl)amino)-2-(3-(dimethylamino)prop-1-yn-1-yl)-4-ethylphenyl)acrylamide] | ≥ 250 | 
16 | < 50 | < 50 | < 50 | < 50 | < 50 |  |  |  | C=CC(=O)Nc1cc(Nc2ncc(Cl)c(Nc3ccccc3P(C)(C)=O)n2)c(OC)cc1OC(COCC)CN(C)C (stereo not drawn) [Example 142, N-(5-((5-chloro-4-((2-(dimethylphosphoryl)phenyl)amino)pyrimidin-2-yl)amino)-2-((1-(dimethylamino)-3-ethoxypropan-2-yl)oxy)-4-methoxyphenyl)acrylamide] | ≥ 250 | 
